Measurements published in PubChem BioAssay AID463206 (Broad Institute, 2010).
Active and inactive are the calls of the source.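 The calls were made as follows: active = caspase luminescence falls with dose and the half-maximal concentration AC50 from the fitted curve is at or below a set limit; inconclusive = flat fit at 30 to 70% signal loss, or invalid fit; inactive = AC50 above the limit, or signal rises instead.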

The compounds below were run on INS-1E cytokine-induced caspase-3/7, Caspase-Glo luminescence, 48 h (assay: inhibitors of cytokine-induced caspase-3/7 activity, dose response, orthogonal assay for beta-cell apoptosis protection project, INS-1E rat cells, luminescence (AID 463206)).

Structure (SMILES)	AC50
CCCCC(=O)NC(c1ccccc1Cl)c1ccc2cccnc2c1O (stereo not drawn)	> 26 µM (inactive)
C/C(=N\NC(=O)c1ccccc1Cl)c1ccccn1	> 26 µM (inactive)
Cc1cc(C)nc(N/N=C2/CCCC/C2=C\c2ccccc2)n1	> 26 µM (inactive)
O=C(C[C@@H]1C/C=C/CC[C@H](Cc2ccc(F)cc2)C(=O)OC[C@@H](Cc2ccccc2)NC1=O)N[C@H](CO)Cc1ccccc1	> 26 µM (inactive)
Cc1ccc(NC(=O)NCC2CCN(Cc3cccc(Cl)c3)CC2)cc1Cl	> 26 µM (inactive)
OC(CNC1CCCCC1)COCCOc1ccc(Br)cc1 (stereo not drawn)	> 12 µM (inactive)
O=[N+]([O-])c1cc(C(F)(F)F)ccc1NCCCCNS(=O)(=O)c1ccc(Cl)cc1	> 26 µM (inactive)
Cc1cc(C)c2c(C)[nH]nc2n1	> 26 µM (inactive)
CCN(CC)c1ccc(/C=N/NC(=O)CCC(=O)NCc2ccccc2)c(O)c1	> 26 µM (inactive)
COc1cccc(/C=N/NC(=O)CNC(=O)c2cccs2)c1O	> 26 µM (inactive)
O=C(NCc1ccncc1)c1cc(-c2ccc(Cl)cc2)oc1C(F)(F)F	> 12 µM (inactive)
Cc1ccc(C2CC(c3cccc(Br)c3)n3nc(N)nc3N2)cc1 (stereo not drawn)	> 26 µM (inactive)
COC(=O)C1CCN(C(=O)c2cc(-c3ccc(Cl)s3)nc3ccccc23)CC1	> 26 µM (inactive)
O=C(Nc1nc2ccc([N+](=O)[O-])cc2s1)c1ccc(S(=O)(=O)N2CCCc3ccccc32)cc1	> 26 µM (inactive)
Oc1ccc2ccccc2c1N=Nc1nccs1	> 26 µM (inactive)
Brc1ccc(-[n+]2c(-c3ccccc3)cc(-c3ccccc3)cc2-c2ccccc2)cc1	> 26 µM (inactive)
O=C(NN=C(c1ccccc1)c1ccccn1)c1ccccc1	> 26 µM (inactive)
Cc1c(Cl)c([N+](=O)[O-])nn1Cc1ccc(C(=O)N/N=C\c2cc(Cl)ccc2O)o1	> 26 µM (inactive)
Cc1cccc(N2C(=S)N=C(Nc3c(C)cccc3C)C23CCOC(C)(C)C3)c1 (stereo not drawn)	> 26 µM (inactive)
O=C1C=C(Nc2ccccc2O)c2ccccc2C1=O	> 26 µM (inactive)
CC(=O)NC(c1cccs1)c1cc(F)c2cccnc2c1O (stereo not drawn)	> 26 µM (inactive)
Cc1ccc2cc(C3C(C#N)=C(N)Oc4c3ccc3cccnc43)c(=O)[nH]c2c1 (stereo not drawn)	> 26 µM (inactive)
CC1CCN(c2ccc(NC(=O)c3ccc([N+](=O)[O-])o3)cc2)CC1	> 26 µM (inactive)
Cc1onc(-c2ccccc2)c1C(=O)NC(=S)NNC(=O)c1ccccc1O	> 26 µM (inactive)

Structure (SMILES)	AC50
Cc1cc(C)nc(SCc2ccc(C(=O)N/N=C/c3cccc(O)c3O)cc2)n1	> 26 µM (inactive)
C/C(=N\NC(=O)COc1ccccc1-c1ccccc1)c1ccccn1	> 26 µM (inactive)
COc1cccc(/C=N/Nc2ncc(C(F)(F)F)cc2Cl)c1O	> 26 µM (inactive)
C=C1C(=O)C=C2CN(C(=O)c3ccccc3)[C@@](Cc3ccc(F)cc3)(C(=O)OC)[C@@H]12	> 26 µM (inactive)
CC(=O)NC(c1ccccc1)c1cc(Cl)c2cccnc2c1O (stereo not drawn)	> 26 µM (inactive)
Cc1ccc(Nc2cc(C)nn2-c2nc(C)cc(=O)[nH]2)cc1	> 26 µM (inactive)
COc1ccc(CNCCC(c2ccc(OC(C)C)cc2)C(C)C)cc1OC (stereo not drawn)	> 26 µM (inactive)
O=C(Nc1ccc(Cl)cc1)c1nc[nH]c1C(=O)NCCN(CCNC(=O)c1[nH]cnc1C(=O)Nc1ccc(Cl)cc1)CCNC(=O)c1[nH]cnc1C(=O)Nc1ccc(Cl)cc1	> 26 µM (inactive)
CC(C)(C)C(=O)Nc1ccc(C(=O)N/N=C/c2ccccc2OC(=O)c2ccc(Cl)cc2)cc1	> 26 µM (inactive)
CC(C)N=c1cc2n(-c3ccc(Cl)cc3)c3ccccc3nc-2cc1Nc1ccc(Cl)cc1	> 26 µM (inactive)
COc1ccc(C(=O)C/C(=C\C(=O)c2ccc(C)cc2)c2ccccc2)cc1	> 26 µM (inactive)
CCCC1(c2ccccc2)NC(=O)N(CC(=O)Nc2cc(C)ccc2OC)C1=O (stereo not drawn)	> 26 µM (inactive)
CC(=O)NN1C(=O)c2ccc3c4c(ccc(c24)C1=O)C(=O)N(NC(C)=O)C3=O	> 26 µM (inactive)
Cc1sc2ncnc(NCC(O)c3ccc([N+](=O)[O-])cc3)c2c1C (stereo not drawn)	> 26 µM (inactive)
COc1ccc(CNCCC(c2ccccc2)c2ccc3c(c2)OCO3)cc1 (stereo not drawn)	> 26 µM (inactive)
O=C(CN1CCOCC1)N/N=C/c1c(O)ccc2ccccc12	> 26 µM (inactive)
CC(C)CC(=O)NC(c1cccs1)c1ccc2cccnc2c1O (stereo not drawn)	> 26 µM (inactive)
COc1ccccc1/C=C1\SC(=O)N(CCC(=O)NCCCn2ccnc2)C1=O	> 26 µM (inactive)
Cc1cc(C)nc(OC(=O)c2ccc(Cl)cc2Cl)n1	> 26 µM (inactive)
O=C(Nc1nc(-c2ccccn2)cs1)c1ccccc1-n1cnnn1	> 26 µM (inactive)
N/C(=N\OC(=O)c1cccc(Cn2cc(C(F)(F)F)ccc2=O)c1)c1ccc(Cl)cc1	> 26 µM (inactive)
COc1ccccc1NCC(=O)N1CCN(S(=O)(=O)c2ccccc2)CC1	> 26 µM (inactive)
O=C(c1ccc(-c2ccc(Cl)cc2)o1)N1CCN(c2ccc([N+](=O)[O-])cc2Cl)CC1	> 26 µM (inactive)
COc1ccc(-c2c[n+]3c(n2-c2ccccc2)CCCCC3)cc1	> 26 µM (inactive)

Structure (SMILES)	AC50
O=C(C1=C[C@@H](c2ccc(C(F)(F)F)cc2)C[C@@H](OCCCCO)O1)N1CCN(Cc2ccccc2)CC1	> 26 µM (inactive)
COc1ccc(/C=N/N2CCN(Cc3ccccc3)CC2)cc1	> 26 µM (inactive)
CC(C)n1cnc2c(NCc3ccccc3)cc(N[C@H](C)CO)cc21	> 26 µM (inactive)
O=C(COC(=O)Cn1cnc2ccccc2c1=O)Nc1ccc2c(c1)OCO2	> 26 µM (inactive)
CN1CCN(c2ccc([N+](=O)[O-])c3no[n+]([O-])c23)CC1	> 26 µM (inactive)
CC(C)(C)CN1CCC(Oc2cccc(C(=O)NCCCOc3cccnc3)c2)CC1	> 26 µM (inactive)
COc1ccc(C(=O)N/N=C/c2ccccc2OC(=O)c2ccccc2)cc1	> 26 µM (inactive)
CN1/C(=C\C(=O)C[n+]2ccc(C(=O)c3ccccc3)cc2)C(C)(C)c2ccccc21	> 26 µM (inactive)
O=C(c1ccc2c(c1)[nH]c(=S)n1c3ccccc3nc21)N1CCN(c2cccc(Cl)c2)CC1	> 26 µM (inactive)
COc1ccc(OC)c2sc(N(CCCN(C)C)C(=O)c3ccc(S(=O)(=O)N4CCc5ccccc5C4)cc3)nc12	> 26 µM (inactive)
CCCCC(=O)N1C/C=C\C(c2ccc(OC)cc2)N(Cc2ccc(F)cc2)C(=O)[C@H]1Cc1ccccc1 (stereo partly drawn)	> 26 µM (inactive)
Cc1nnc(N=c2ssnc2Cl)o1	> 26 µM (inactive)
CCCCNC(=O)c1ccc(Cn2c(=S)[nH]c3c([nH]c4ccc(OC)cc43)c2=O)cc1	> 26 µM (inactive)
CN1/C(=C\C(=O)c2ccco2)C(C)(C)c2ccccc21	> 26 µM (inactive)
COc1cc(NC2CCCCC2O)c2nc(-c3ccc(Cl)cc3)ccc2c1 (stereo not drawn)	> 26 µM (inactive)
O=C(N/N=C/c1cc(Cl)ccc1O)c1cccnc1	> 26 µM (inactive)
C#CCOCCOCCOCCNc1nc(N2CCN(C(=O)CCCCCCCCCCNC(=O)[C@H]([C@@H](C)CC)n3cc(CCCCCN)nn3)CC2)nc(N2CCN(C(=O)CCCCCCCCCCNC(=O)[C@H]([C@@H](C)CC)n3cc(CCCCN=C(N)N)nn3)CC2)n1	> 26 µM (inactive)
CCc1cc[n+](C2=C([O-])c3ccccc3C(=O)/C2=N\S(=O)(=O)c2cccs2)cc1	> 26 µM (inactive)
COC(=O)c1cc(O)cc(OC)c1Oc1cc(C)cc(O)c1C(=O)O	3.06 µM
COc1cccc(/C=N/NC(=O)c2cc3c(OC)ccc(OC)c3[nH]2)c1O	> 26 µM (inactive)
Cc1cc([N+](=O)[O-])c2ccccc2[n+]1[O-]	> 26 µM (inactive)
COc1ccc(-c2nn(-c3ccccc3)cc2C(=O)OCC(=O)c2ccc(C)c([N+](=O)[O-])c2)cc1	> 26 µM (inactive)
COc1ccc(CCNc2ncnc3c2oc2ccccc23)cc1OC	> 26 µM (inactive)
CNC[C@H](CC1CCCCC1)NC[C@H](Cc1ccccc1)NCCC12CC3CC(CC(C3)C1)C2	> 26 µM (inactive)

Structure (SMILES)	AC50
CCN(CC)CCn1c2ccccc2c2cnc(N)c(C#N)c21	5.57 µM
COC(=O)c1cc(C)nc2c1C(=O)C(=O)C=C2N1CCOCC1	> 26 µM (inactive)
Nc1nc2ccccc2n1/N=C/c1ccc([N+](=O)[O-])s1	> 26 µM (inactive)
CCN(CC)c1ccc(/C=N/NC(=O)c2ccco2)c(O)c1	> 26 µM (inactive)
O=C(N/N=C/c1ccc(O)c2ncccc12)c1cccc(Br)c1	> 26 µM (inactive)
COc1cccc(Cn2c(NCc3ccco3)nc3c2c(=O)n(C)c(=O)n3C)c1	> 26 µM (inactive)
Cc1ccc(S(=O)(=O)c2ccc([N+](=O)[O-])cn2)cc1	> 26 µM (inactive)
COc1ccc(N=Nc2ccc(O)c3ncccc23)cc1	> 12 µM (inactive)
Cc1ccc(-c2cn(-c3ccccc3)c3[n+]2CCCS3)cc1	> 26 µM (inactive)
CCCCCCCCCn1ccc(=N)cc1	> 26 µM (inactive)
O=C(O)c1ccc(S(=O)(=O)/N=C2\C=C(Nc3ccccc3F)C(=O)c3ccccc32)cc1	> 26 µM (inactive)
COc1ccc(C(=O)NC(=S)NNC(=O)c2cnccn2)cc1OC	> 26 µM (inactive)
Cc1ccc(C)c(S(=O)(=O)N2CCN(c3ncnc4sccc34)CC2)c1	> 26 µM (inactive)
Oc1c(CN2CCN(c3ccc(F)cc3)CC2)cc(Cl)c2cccnc12	> 26 µM (inactive)
COc1cccc(/C=N/NC(=O)CN2CC(c3ccccc3)CC2=O)c1O (stereo not drawn)	> 26 µM (inactive)
Oc1c(C(Nc2ccccn2)c2cccnc2)cc(Cl)c2cccnc12 (stereo not drawn)	> 26 µM (inactive)
CCCCCCCCCCn1ccc(=N)cc1	> 26 µM (inactive)
O=c1c2ccccc2nc(COc2ccccc2)n1/N=C/c1cc([N+](=O)[O-])ccc1O	> 26 µM (inactive)
O=[N+]([O-])c1cnc(Sc2ccncn2)s1	> 26 µM (inactive)
COc1ncnc(OC)c1S(=O)(=O)Nc1ccc(C(F)(F)F)cc1	> 26 µM (inactive)
Cc1ccc(-c2c[n+](Cc3ccc(Cl)c(Cl)c3)c3n2CCC3)cc1	> 26 µM (inactive)
